Laboratory results published in PubChem BioAssay AID588646 (The Scripps Research Institute Molecular Screening Center, 2011).
Calls of active or inactive are those of the source.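 Rule for the calls: active = phosphorylated p38 level fell or rose by at least 30% against DMSO-treated cells; inactive = change under 30% either way.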

Molecular target: Mitogen-activated protein kinase 14 (Homo sapiens) (UniProt Q16539)
Test: phosphorylated p38 MAPK abundance shift – cell-based, HCT116 colorectal carcinoma, chemiluminescent western blot, counter-screen for KLF5 inhibitor project, late-stage follow-up (AID 588646)
Conditions: HCT116 phospho-p38 western blot, 24 h, at 10 µM; for inhibition: measured here: phospho-p38 inhibition percent

Chain of Mitogen-activated protein kinase 14 (Homo sapiens) (Q16539 whole entry, looked up): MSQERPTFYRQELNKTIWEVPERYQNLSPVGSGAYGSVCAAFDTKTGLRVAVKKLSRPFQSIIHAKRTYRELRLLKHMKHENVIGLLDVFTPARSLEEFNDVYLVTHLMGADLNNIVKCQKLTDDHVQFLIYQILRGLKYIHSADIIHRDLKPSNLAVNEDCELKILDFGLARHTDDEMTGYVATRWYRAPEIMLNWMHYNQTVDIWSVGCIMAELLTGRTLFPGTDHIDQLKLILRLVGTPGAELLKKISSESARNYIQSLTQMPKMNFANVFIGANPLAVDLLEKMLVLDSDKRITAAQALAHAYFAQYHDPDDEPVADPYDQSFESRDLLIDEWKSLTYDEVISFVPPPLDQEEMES

fold change	inhibition [%]	Compound
7.64	–	CN(C(=O)CNC(=O)/C=C/c1cccc(Cl)c1)C1CCS(=O)(=O)CC1
2.03	-103	CN(C(=O)COC(=O)/C=C/c1cccc([N+](=O)[O-])c1)C1CCS(=O)(=O)C1 (stereo not given)
-1.14 (inactive)	11.9	CN(C(=O)CNC(=O)/C=C/c1cccc(Cl)c1)C1CCS(=O)(=O)C1 (stereo not given)
